Measurements reported in patent publication US20260374754A1, “N-((ISOQUINOLIN-6-YL)METHYL)-1H-PYRAZOLE-4-CARBOXAMIDE DERIVATIVES AS PLASMA KALLIKREIN INHIBITORS FOR THE TREATMENT OF HEREDITARY ANGIODEMA” (Takeda Pharmaceutical Company Limited, priority 2022, published 2026).

Each compound was assayed against human activated kallikrein enzyme (Homo sapiens, UniProt P03952) (assay: Inhibition of human activated plasma kallikrein, fluorogenic PFR-AMC substrate, 500 pM enzyme format). Conditions: 500 pM activated kallikrein; 300 μM PFR-AMC; 30 min preincubation; 10 min room temperature; pH 7.5; read-out: Primary Dose Response Assay: Average EC50.
human activated kallikrein enzyme, sequence (P03952 391-638 limits assumed): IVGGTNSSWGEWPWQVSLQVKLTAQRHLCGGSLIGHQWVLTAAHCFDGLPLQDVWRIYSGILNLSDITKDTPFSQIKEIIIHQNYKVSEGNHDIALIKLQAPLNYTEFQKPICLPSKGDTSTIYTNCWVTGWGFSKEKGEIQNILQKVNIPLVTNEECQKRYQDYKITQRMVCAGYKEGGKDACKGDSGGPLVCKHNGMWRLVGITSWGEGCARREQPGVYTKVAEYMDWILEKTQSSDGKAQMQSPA
human activated kallikrein enzyme, sequence (P03952 20-390 partner limits assumed): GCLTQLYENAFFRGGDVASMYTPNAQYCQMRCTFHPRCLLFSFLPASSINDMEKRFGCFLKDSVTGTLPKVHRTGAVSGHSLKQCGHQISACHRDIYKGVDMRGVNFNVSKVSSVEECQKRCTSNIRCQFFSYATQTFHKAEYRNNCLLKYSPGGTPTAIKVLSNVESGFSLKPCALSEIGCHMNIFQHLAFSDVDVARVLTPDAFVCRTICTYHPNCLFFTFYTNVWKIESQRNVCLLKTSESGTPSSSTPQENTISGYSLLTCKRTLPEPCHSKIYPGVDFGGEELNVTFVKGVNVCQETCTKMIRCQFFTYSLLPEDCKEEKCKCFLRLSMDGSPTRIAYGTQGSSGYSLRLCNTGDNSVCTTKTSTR
Assay type: biochemical
Outline: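 500 pM activated kallikrein preincubated 30 min at room temperature with inhibitors in pH 7.5 Tris/EDTA/NaCl buffer with PEG-400 and Triton X-100. Reaction started with 300 μM PFR-AMC, run 10 min at room temperature; AMC fluorescence read at ex 380/em 460 nm.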
Work on Cc1cc2c(N)nccc2c(C)c1CNc1cc(OCc2ccc3ncc(Cl)cc3c2)cnn1 [Example 407, 6-(((5-((3-chloroquinolin-6-yl)methoxy)pyridazin-3-yl)amino)methyl)-5,7-dimethylisoquinolin-1-amine] yielded an EC50 of under 1 nM. Compound Cc1cc2c(N)nccc2c(C)c1CNc1cc(C(F)c2cn3cc(C4CC4)ccc3n2)ncn1 (stereo not shown) [Example 529, 6-(((6-((6-cyclopropylimidazo[1,2-a]pyridin-2-yl)fluoromethyl)pyrimidin-4-yl)amino)methyl)-5,7-dimethylisoquinolin-1-amine] has an EC50 of 1 to 10 nM. With Cc1ccc2nc(C(C)n3cc(C(=O)NCc4c(C)cc5c(N)nccc5c4C)cn3)cn2c1 (single isomer, unassigned) [Example 12, (S*)-N-((1-amino-5,7-dimethylisoquinolin-6-yl)methyl)-1-(1-(6-methylimidazo[1,2-a]pyridin-2-yl)ethyl)-1H-pyrazole-4-carboxamide] the EC50 was under 1 nM. Compound Cc1cc2c(N)nccc2c(C)c1CNC(=O)c1cnn(Cc2cn3c(C)c(C)ccc3n2)c1 [Example 136, N-((1-amino-5,7-dimethylisoquinolin-6-yl)methyl)-1-((5,6-dimethylimidazo[1,2-a]pyridin-2-yl)methyl)-1H-pyrazole-4-carboxamide] has an EC50 of under 1 nM. Compound Cc1cc2c(N)nccc2c(C)c1CNc1cc(OCc2ccccc2)cnn1 [Example 443, 6-(((5-(benzyloxy)pyridazin-3-yl)amino)methyl)-5,7-dimethylisoquinolin-1-amine] has an EC50 of 100 to 1000 nM. For Cc1cc2c(N)nccc2c(C)c1CNC(=O)c1cnn(Cc2ccccn2)c1 [Example 78, N-((1-amino-5,7-dimethylisoquinolin-6-yl)methyl)-1-(pyridin-2-ylmethyl)-1H-pyrazole-4-carboxamide], the EC50 was 100 to 1000 nM. Work on Cc1cc2c(N)nccc2c(C)c1CNc1cc(OCc2ccc(Cn3cccn3)cc2)c2c(c1)C(=O)N(C)C2 [Example I-468, 4-((4-((1H-pyrazol-1-yl)methyl)benzyl)oxy)-6-(((1-amino-5,7-dimethylisoquinolin-6-yl)methyl)amino)-2-methylisoindolin-1-one] yielded an EC50 of 1 to 10 nM. Work on Cc1cc2c(N)nccc2c(C)c1CNc1cc(NCc2ccc(OCC(=O)N(C)C)cc2)ncn1 [Example 377, 2-(4-(((6-(((1-amino-5,7-dimethylisoquinolin-6-yl)methyl)amino)pyrimidin-4-yl)amino)methyl)phenoxy)-N,N-dimethylacetamide] yielded an EC50 of under 1 nM. Cc1cc2c(N)nccc2c(C)c1CNc1nccc2c1cnn2Cc1cn2cc(C3CC3)ccc2n1 [Example 266] showed an EC50 of 100 to 1000 nM. In the case of Cc1cc2c(N)nccc2c(C)c1CNC(=O)c1cnn(Cc2ccc(CC(=O)N3CC4CC4C3)nc2)c1 (stereo not shown) [Example 90, 1-((6-(2-(3-azabicyclo[3.1.0]hexan-3-yl)-2-oxoethyl)pyridin-3-yl)methyl)-N-((1-amino-5,7-dimethylisoquinolin-6-yl)methyl)-1H-pyrazole-4-carboxamide], the EC50 is reported as under 1 nM. For Cc1cc2c(N)nccc2c(C)c1CNc1cc(NCc2cn3c(C)c(Cl)ccc3n2)ncn1 [Example 330, N^4-((1-amino-5,7-dimethylisoquinolin-6-yl)methyl)-N^6-((6-chloro-5-methylimidazo[1,2-a]pyridin-2-yl)methyl)pyrimidine-4,6-diamine], the EC50 was under 1 nM. Cc1cc2c(N)nccc2c(C)c1CNC(=O)c1cnn(Cc2cn3c(C4CC4)cccc3n2)c1 [Example 137, N-((1-amino-5,7-dimethylisoquinolin-6-yl)methyl)-1-((5-cyclopropylimidazo[1,2-a]pyridin-2-yl)methyl)-1H-pyrazole-4-carboxamide] gave an EC50 of 1 to 10 nM. Work on Cc1cc2c(N)nccc2c(C)c1CNC(=O)c1cnn(Cc2ccc(CCn3cccn3)cc2)c1 [Example 48, 1-(4-(2-(1H-pyrazol-1-yl)ethyl)benzyl)-N-((1-amino-5,7-dimethylisoquinolin-6-yl)methyl)-1H-pyrazole-4-carboxamide] yielded an EC50 of 1 to 10 nM. Cc1ccc2nc(C(C)n3cc(C(=O)NCc4c(C)cc5c(N)nccc5c4C)cn3)cn2c1 (single isomer, unassigned) [Example 11, (R*)-N-((1-amino-5,7-dimethylisoquinolin-6-yl)methyl)-1-(1-(6-methylimidazo[1,2-a]pyridin-2-yl)ethyl)-1H-pyrazole-4-carboxamide] showed an EC50 of under 1 nM. For Cc1cc2c(N)nccc2c(C)c1CNC(=O)c1cnn(Cc2ccc(CC(=O)N(C)c3ccccc3)cc2)c1 [Example 228, N-((1-amino-5,7-dimethylisoquinolin-6-yl)methyl)-1-(4-(2-(methyl(phenyl)amino)-2-oxoethyl)benzyl)-1H-pyrazole-4-carboxamide], the EC50 was 1 to 10 nM. For Cc1ccc2ncc(COc3cnnc(NCc4c(C)cc5c(N)nccc5c4C)c3)cc2c1 [Example 408, 5,7-dimethyl-6-(((5-((6-methylquinolin-3-yl)methoxy)pyridazin-3-yl)amino)methyl)isoquinolin-1-amine], the EC50 was under 1 nM. Cc1cc2c(N)nccc2c(C)c1CN1C(=O)c2ncc(OCc3cn4cc(C5CC5)ccc4n3)cc21 [Example 494, 7-((1-amino-5,7-dimethylisoquinolin-6-yl)methyl)-4-((6-cyclopropylimidazo[1,2-a]pyridin-2-yl)methoxy)-2,7-diazabicyclo[4.2.0]octa-1,3,5-trien-8-one] was tested, and the EC50 was over 1000 nM. For Cc1cc2c(N)nccc2c(C)c1CNc1cc(OCc2ccc3ncccc3c2)ncn1 [Example 374, 5,7-dimethyl-6-(((6-(quinolin-6-ylmethoxy)pyrimidin-4-yl)amino)methyl)isoquinolin-1-amine], the EC50 was 10 to 100 nM. Compound Cc1cc2c(N)nccc2c(C)c1CNc1cc(OCc2ccc(Cc3cccn(C)c3=O)cc2)cnn1 [Example 440, 3-(4-(((6-(((1-amino-5,7-dimethylisoquinolin-6-yl)methyl)amino)pyridazin-4-yl)oxy)methyl)benzyl)-1-methylpyridin-2(1H)-one] has an EC50 of under 1 nM. For Cc1ccc2ccc(Cn3cc(C(=O)NCc4c(C)cc5c(N)nccc5c4C)cn3)cc2c1 [Example 153, N-((1-amino-5,7-dimethylisoquinolin-6-yl)methyl)-1-((7-methylnaphthalen-2-yl)methyl)-1H-pyrazole-4-carboxamide], the EC50 was 1 to 10 nM. Work on Cc1cc2c(N)nccc2c(C)c1CNC(=O)c1cnn(Cc2cc3cc(C4CC4)ccn3n2)c1 [Example 121, N-((1-amino-5,7-dimethylisoquinolin-6-yl)methyl)-1-((5-cyclopropylpyrazolo[1,5-a]pyridin-2-yl)methyl)-1H-pyrazole-4-carboxamide] yielded an EC50 of under 1 nM. For CCOC(=O)Nc1nccc2c(C)c(CNc3cc(NCc4ccc(Cn5ccccc5=O)cc4)ncn3)c(C)cc12 [Example 249, ethyl (5,7-dimethyl-6-(((6-((4-((2-oxopyridin-1(2H)-yl)methyl)benzyl)amino)pyrimidin-4-yl)amino)methyl)isoquinolin-1-yl)carbamate], the EC50 was 10 to 100 nM. Work on Cc1cc2c(N)nccc2c(C)c1CNC(=O)c1cnn(Cc2cc3cc(Br)ccc3s2)c1 [Example 51, N-((1-amino-5,7-dimethylisoquinolin-6-yl)methyl)-1-((5-bromobenzo[b]thiophen-2-yl)methyl)-1H-pyrazole-4-carboxamide] yielded an EC50 of under 1 nM. In the case of Cc1cc2c(N)nccc2c(C)c1CNC(=O)c1cnn(Cc2ccc(CC(=O)N3CCCCC3)cc2)c1 [Example 223, N-((1-amino-5,7-dimethylisoquinolin-6-yl)methyl)-1-(4-(2-oxo-2-(piperidin-1-yl)ethyl)benzyl)-1H-pyrazole-4-carboxamide], the EC50 is reported as 1 to 10 nM. Cc1cc2c(N)nccc2c(C)c1CNC(=O)c1cnn(Cc2ccc(CC(=O)N3CCC3)cc2)c1 [Example 219, N-((1-amino-5,7-dimethylisoquinolin-6-yl)methyl)-1-(4-(2-(azetidin-1-yl)-2-oxoethyl)benzyl)-1H-pyrazole-4-carboxamide] showed an EC50 of under 1 nM. CC(=O)Nc1nccc2cc(C)c(CNc3cc(NCc4ccc(Cn5ccccc5=O)cc4)ncn3)c(C)c12 [Example 247, N-(6,8-dimethyl-7-(((6-((4-((2-oxopyridin-1(2H)-yl)methyl)benzyl)amino)pyrimidin-4-yl)amino)methyl)isoquinolin-1-yl)acetamide] was tested, and the EC50 was 1 to 10 nM. In the case of Cc1cc2c(N)nccc2c(C)c1CNC(=O)c1cnn(Cc2ccc(CC(=O)N3C[C@@H]4[C@H](CF)[C@@H]4C3)cc2)c1 [Example 206, N-((1-amino-5,7-dimethylisoquinolin-6-yl)methyl)-1-(4-(2-((1R,5S,6s)-6-(fluoromethyl)-3-azabicyclo[3.1.0]hexan-3-y1)-2-oxoethyl)benzyl)-1H-pyrazole-4-carboxamide], the EC50 is reported as 1 to 10 nM. Cc1cc2c(N)nccc2c(C)c1CNc1cc(OCc2ccc(Cn3cccc(C4CC4)c3=O)cc2)cnn1 [Example 437, 1-(4-(((6-(((1-amino-5,7-dimethylisoquinolin-6-yl)methyl)amino)pyridazin-4-yl)oxy)methyl)benzyl)-3-cyclopropylpyridin-2(1H)-one] was tested, and the EC50 was under 1 nM. Cc1cc2c(N)nccc2c(C)c1CNC(=O)c1cnn(Cc2cccc(C(F)(F)F)c2)c1 [Example 97, N-((1-amino-5,7-dimethylisoquinolin-6-yl)methyl)-1-(3-(trifluoromethyl)benzyl)-1H-pyrazole-4-carboxamide] gave an EC50 of 10 to 100 nM. Cc1cc2c(N)nccc2c(C)c1CNC(=O)c1cnn(Cc2cn3cc(C4CC4C)ccc3n2)c1 (stereo not shown) [Example 178, N-((1-amino-5,7-dimethylisoquinolin-6-yl)methyl)-1-((6-(2-methylcyclopropyl)imidazo[1,2-a]pyridin-2-yl)methyl)-1H-pyrazole-4-carboxamide] was tested, and the EC50 was under 1 nM.

Same assay, conditions: Primary Dose Response Assay: Average EC50, 500 pM activated kallikrein; 300 μM PFR-AMC; 30 min preincubation; 10 min room temperature; pH 7.5
Compound Cc1cc2c(N)nccc2c(C)c1CNC(=O)c1cn(Cc2cn3cc(C4CC4)ccc3n2)c2cccnc12 [Example I-485, N-((1-amino-5,7-dimethylisoquinolin-6-yl)methyl)-1-((6-cyclopropylimidazo[1,2-a]pyridin-2-yl)methyl)-1H-pyrrolo[3,2-b]pyridine-3-carboxamide] has an EC50 of 1 to 10 nM.
